Data reported in patent US10167507B2, “Metabolic diseases-related odorant receptor genes and use thereof” (INDUSTRY-ACADEMIC COOPERATION FOUNDATION, YONSEI UNIVERSITY, priority 2010, dated 2019).

How the values were obtained:
[1] = test system: olfactory receptors in visceral fat tissue; test: OligoDNA microarray, visceral fat tissue of HFD mice fed odor components; type: in vivo, mouse
Experimental: DNA microarry analysis using RNAs of visceral fat and liver tissue was conducted by GENOCHECK (CO., LTD.). RNA samples were pooled from 10 mice in each experimental group and subjected to microarray experiments in triplicate for the test of reproducibility. NimbleGen Mouse Whole Oligo 12-plex chip used in this experiment was prepared by triplicating 42,576 genes using Mouse Genome Build 8 as database. In NimbleGen mouse Whole Oligo 12-plex chip, 137,090 spots excluded control group gene were spotted by 16 μm×16 μm size in 17.4 mm×13 mm size. 42,576 oligo included 137,145 genes which are known their functions and 5,431 transcripts and EST sequences which are unknown their functions. 10-50 μg of total RNA was added in oligo-dT primer, reverse transcriptase, dNTP, Cy3-dUTP and Cy5-dUTP, and reverse-transcripted according to the kit manufacturer's recommendations. The resultant was purified using cartridge, dried and dissolved in hybridization buffer solution (30 μL). The microarray was placed in hybridization cassette, heated at 95-100° C. for 5 min, mixed independently to each of RNA labeled with Cy3 and Cy5, and hybridized at 45° C. for 18 hrs. The slide was washed twice in solution containing 1×SSC and 0.1% SDS for 5 min, washed in 1×SSC for 5 min and dried to analyze.

[2] = test system: olfactory receptors in liver tissue; test: OligoDNA microarray, liver tissue of HFD mice fed odor components; type: in vivo, mouse
From the text: (§1) The obesity-inducing control diet used in the test was high-fat diet (HFD: 40% fat calorie, 17 g lard+3% corn oil/100 g diet). Diets supplemented with an odor component had the same composition as HFD, except that each of various types of odor components (indol-3-carbinol, oleuropein, cedryl acetate, α-cedrene and piperine) having anti-obesity efficacy was contained in 0.02-0.05% concentration. Indo)-3-carbinol, oleuropein, cedryl acetate, a-cedrene and piperine were purchased from Sigma-Aldrich.
(§2) After adding Trizol agent to visceral fat or liver tissue, the mixture was homogenized and centrifuged at 12,000×g for 10 min at 4° C. The supernatant was transferred to a new tube to remove fat layer. Then, 200 μl of chloroform was added to the tube, followed by vortexing. The same procedure was repeated twice and then the supernatant was transferred to a new tube, followed by addition of isopropanol and the supernatant at 1:1 ratio. The mixture was vigorously shaken 10 times and then incubated for 10 min at room temperature, followed by centrifugation at 12,000×g for 10 min at 4° C. to remove the supernatant. After adding 1 mL of 70% ethanol to the remaining pellet, it was centrifuged at 7,500×g for 5 min at 4° C. After removing the ethanol, the RNA pellet contained in the tube was dried for 5 min at 4° C. and dissolved in nuclease-free water. The RNA sample concentration was measured at a wavelength of 260 nm and 280 nm using a UV/VIS spectrophotometer (Beckman coulter, DU730) and the integrity of RNA sample was verified by agarose gel electrophoresis.
(§3) DNA microarry analysis using RNAs of visceral fat and liver tissue was conducted by GENOCHECK (CO., LTD.). RNA samples were pooled from 10 mice in each experimental group and subjected to microarray experiments in triplicate for the test of reproducibility. NimbleGen Mouse Whole Oligo 12-plex chip used in this experiment was prepared by triplicating 42,576 genes using Mouse Genome Build 8 as database. In NimbleGen mouse Whole Oligo 12-plex chip, 137,090 spots excluded control group gene were spotted by 16 μm×16 μm size in 17.4 mm×13 mm size. 42,576 oligo included […] genes which are known their functions and 5,431 transcripts and EST sequences which are unknown their functions. 10-50 μg of total RNA was added in oligo-dT primer, reverse transcriptase, dNTP, Cy3-dUTP and Cy5-dUTP, and reverse-transcripted according to the kit manufacturer's recommendations. The resultant was purified using cartridge, dried and dissolved in hybridization buffer solution (30 μL). The microarray was placed in hybridization cassette, heated at 95-100° C. for 5 min, mixed independently to each of RNA labeled with Cy3 and Cy5, and hybridized at 45° C. for 18 hrs. The slide was washed twice in solution containing 1×SSC and 0.1% SDS for 5 min, washed in 1×SSC for 5 min and dried to analyze.
(§4) The profile for olfactory receptors in which the expression was regulated by more than 2-fold change due to intake of odor components at each tissue was shown in Tables 5. As a result, it was determined that various types of odor components having anti-obesity efficacy regulated a plurality of olfactory receptors in peripheral tissues.

[3] = test system: olfactory receptors in visceral fat and liver tissues; test: OligoDNA microarray, visceral fat and liver tissues of HFD mice fed odor components (tissue not separated in text); type: in vivo; conditions: supplemented to mouse fed high-fat diet for 10 weeks
From the text: as §1, §2, §3, §4

[4] = test system: CREB (cAMP-responsive element binding protein); test: Western blotting, protein phosphorylation of CREB; type: in vivo, mouse
Experimental: (§5) A certain amount of visceral fat or liver tissues in mortar was homogenized with liquid nitrogen and cell lysis buffer. The mixture was transferred to a new tube, followed by vortexing. After centrifugation at 13,000×g for 20 min at 4° C., the middle layer of the tube was obtained and proteins were quantified by Bradford method. 50 μg of protein was electrophorized to SDS polyacrylamide gel, followed by electroblotting to PVDF hyper film. The protein was reacted using an appropriate antibody for the protein and detected by ECL, whereby insulin resistance, adipocyte differentiation, lipid metabolism or energy consumption-related mechanism of phytochemical components was investigated in the protein level.
(§6) In order to verify this, protein phosphorylations of HSL (hormone sensitive lipase), CREB (cAMP-responsive element binding protein) and AKT (v-akt murine thymoma viral oncogene) were evaluated by western blotting analysis.

[5] = test system: HSL (hormone sensitive lipase); test: Western blotting, protein phosphorylation of HSL; type: in vivo, mouse
Experimental: as §5, §6

[6] = test system: obesity and metabolic diseases-related genes in visceral fat tissue; test: RT-PCR of obesity and metabolic diseases-related genes, visceral fat tissue; type: in vivo, mouse; conditions: odor component-supplemented group to the HFD control group
Experimental: After adding 1 mL of Trizol agent (Invitrogen, USA) per 0.1 g of visceral fat or liver tissues, the mixture was homogenized and centrifuged at 12,000×g for 10 min at 4° C. The supernatant was transferred to a new tube and 200 μl of chloroform was added to the tube, followed by vortexing. The same procedure was repeated twice and then the supernatant was transferred to a new tube, followed by addition of isopropanol and the supernatant at 1:1 ratio. The mixture was vigorously shaken 10 times and then incubated for 10 min at room temperature, followed by centrifugation at 12,000×g for 10 min at 4° C. to remove the supernatant. After adding 1 mL of 70% ethanol to the remaining pellet, it was centrifuged at 7,500×g for 5 min at 4° C. After removing the ethanol, the RNA pellet contained in the tube was dried for 5 min at 4° C. and dissolved in nuclease-free water. The RNA sample concentration was measured at a wavelength of 260 nm and 280 nm using a UV/VIS spectrophotometer (Beckman coulter, DU730) and the integrity of RNA sample was verified by agarose gel electrophoresis. The RNA sample obtained from the visceral fat or liver tissues was trasnscribed using oligo dT primer and reverse transcriptase (GIBCO BRL, Gaithersburg, Md., USA) to synthesize cDNA. The PCR amplification was performed using the cDNA as templates and primers complementary to cDNA [NT] flanking sequence. 1 μl of the amplified products were resolved on agarose gel electrophoresis to verify DNA band.

[7] = test system: AKT (v-akt murine thymoma viral oncogene); test: Western blotting, protein phosphorylation of AKT; type: in vivo, mouse
Experimental: as §5, §6

[8] = supplemented to HFD-fed mouse 10 weeks
[9] = odor component-supplemented group to the HFD control group
[10] = western blotting, compared to the HFD control group

OCc1c[nH]c2ccccc12 [Indole-3 carbinol]
Olfr380 expression fold change to HFD group [1, 8]: 2.20 | Olfr909 expression fold change to HFD group [1, 8]: 3.45 | Olfr972 expression fold change to HFD group [1, 8]: 0.43 | Olfr1093 expression fold change to HFD group [1, 8]: 0.42 | Olfr1165 expression fold change to HFD group [1, 8]: 0.39 | Olfr1462 expression fold change to HFD group [1, 8]: 2.26 | Olfr16 expression fold change to HFD group [2, 8]: 0.47 | Olfr116 expression fold change to HFD group [2, 8]: 2.12 | Olfr178 expression fold change to HFD group [2, 8]: 2.06 | Olfr196 expression fold change to HFD group [2, 8]: 0.45 | Olfr259 expression fold change to HFD group [2, 8]: 0.50 | Olfr290 expression fold change to HFD group [2, 8]: 2.11 | Olfr466 expression fold change to HFD group [2, 8]: 0.49 | Olfr686 expression fold change to HFD group [2, 8]: 0.35 | Olfr1045 expression fold change to HFD group [2, 8]: 0.45 | Olfr1153 expression fold change to HFD group [2, 8]: 2.82 | Olfr1216 expression fold change to HFD group [2, 8]: 0.41 | Olfr1329 expression fold change to HFD group [2, 8]: 0.48 | Olfr1337 expression fold change to HFD group [2, 8]: 0.49

CC(=O)O[C@]1(C)CC[C@@]23C[C@@H]1C(C)(C)[C@@H]2CC[C@H]3C [cedryl acetate]
expression of olfactory receptor 38 increased [3]: more than 2 fold change | expression of olfactory receptor 77 decreased [3]: more than 2 fold change | expression of olfactory receptor 275 increased [3]: more than 2 fold change | expression of olfactory receptor 290 increased [3]: more than 2 fold change | expression of olfactory receptor 305 increased [3]: more than 2 fold change | expression of olfactory receptor 341 decreased [3]: more than 2 fold change | expression of olfactory receptor 380 increased [3]: more than 2 fold change | expression of olfactory receptor 417 decreased [3]: more than 2 fold change | expression of olfactory receptor 618 decreased [3]: more than 2 fold change | expression of olfactory receptor 663 increased [3]: more than 2 fold change | expression of olfactory receptor 878 increased [3]: more than 2 fold change | expression of olfactory receptor 1058 increased [3]: more than 2 fold change | expression of olfactory receptor 1104 increased [3]: more than 2 fold change | expression of olfactory receptor 1123 increased [3]: more than 2 fold change | expression of olfactory receptor 1125 increased [3]: more than 2 fold change | expression of olfactory receptor 1136 decreased [3]: more than 2 fold change | expression of olfactory receptor 1157 decreased [3]: more than 2 fold change | expression of olfactory receptor 1165 decreased [3]: more than 2 fold change | expression of olfactory receptor 1442 increased [3]: more than 2 fold change | CREB phosphorylation, increase (change rate) [4, 9]: 39% increase | phosphorylation of CREB [4, 10]: significantly increased | HSL phosphorylation, increase (change rate) [5, 9]: 46% increase | phosphorylation of HSL [5, 10]: significantly increased | expression of olfactory receptor 290 [1]: increased | expression of olfactory receptor 341 [1]: decreased | expression of olfactory receptor 380 [1]: increased | expression of olfactory receptor 1104 [1]: increased | expression of olfactory receptor 1165 [1]: decreased | Olfr290 expression fold change to HFD group [1, 8]: 2.40 | Olfr341 expression fold change to HFD group [1, 8]: 0.32 | Olfr380 expression fold change to HFD group [1, 8]: 2.14 | Olfr417 expression fold change to HFD group [1, 8]: 0.42 | Olfr618 expression fold change to HFD group [1, 8]: 0.43 | Olfr663 expression fold change to HFD group [1, 8]: 2.04 | Olfr1058 expression fold change to HFD group [1, 8]: 2.18 | Olfr1104 expression fold change to HFD group [1, 8]: 3.22 | Olfr1123 expression fold change to HFD group [1, 8]: 2.64 | Olfr1125 expression fold change to HFD group [1, 8]: 2.07 | Olfr1136 expression fold change to HFD group [1, 8]: 0.43 | Olfr1157 expression fold change to HFD group [1, 8]: 0.46 | Olfr1165 expression fold change to HFD group [1, 8]: 0.36 | Olfr1442 expression fold change to HFD group [1, 8]: 2.18 | C/EBPα gene expression, decrease (change rate) [6]: 36% decrease | CPT1 gene expression, increase (change rate) [6]: 47% increase^ | FAS gene expression, decrease (change rate) [6]: 43% decrease | IL-6 gene expression, decrease (change rate) [6]: 74% decrease | PGC1α gene expression, increase (change rate) [6]: 57% increase^ | PPARγ2 gene expression, decrease (change rate) [6]: 25% decrease | SIRT1 gene expression, increase (change rate) [6]: 650% increase ^ | TNFα gene expression, decrease (change rate) [6]: 99% decrease | UCP1 gene expression, increase (change rate) [6]: 899% increase ^ | UCP3 gene expression, increase (change rate) [6]: 65% increase^ | aP2 gene expression, decrease (change rate) [6]: 33% decrease | expression of olfactory receptor 38 [2]: increased | expression of olfactory receptor 77 [2]: decreased | expression of olfactory receptor 275 [2]: increased | expression of olfactory receptor 878 [2]: increased | Olfr38 expression fold change to HFD group [2, 8]: 2.39 | Olfr77 expression fold change to HFD group [2, 8]: 0.5 | Olfr275 expression fold change to HFD group [2, 8]: 2.64 | Olfr305 expression fold change to HFD group [2, 8]: 2.21 | Olfr878 expression fold change to HFD group [2, 8]: 2.76 | Olfr77 expression fold change to HFD group ([2]; supplemented to HFD-fed mouse 10 weeks, listed as Cedryl acetate): 0.50 | AKT phosphorylation, increase (change rate) [7, 9]: 33% increase | phosphorylation of AKT [7, 10]: significantly increased

CC1=CC[C@@]23C[C@@H]1C(C)(C)[C@@H]2CC[C@H]3C [α-cedrene]
expression of olfactory receptor 38 increased [3]: more than 2 fold change | expression of olfactory receptor 878 increased [3]: more than 2 fold change | expression of olfactory receptor 1045 decreased [3]: more than 2 fold change | expression of olfactory receptor 1222 increased [3]: more than 2 fold change | expression of olfactory receptor 38 [2]: increased | expression of olfactory receptor 878 [2]: increased | expression of olfactory receptor 1045 [2]: decreased | Olfr38 expression fold change to HFD group [2, 8]: 3.83 | Olfr878 expression fold change to HFD group [2, 8]: 5.87 | Olfr1045 expression fold change to HFD group [2, 8]: 0.43 | Olfr1222 expression fold change to HFD group [2, 8]: 2.15
